From patent US20240092758A1, “IMIDAZOLO INDAZOLE COMPOUNDS AS JAK INHIBITORS” (Theravance Biopharma R&D IP, LLC, priority 2021, published 2024)

Columns and labels:
[1] = molecular target: JAK2 (Homo sapiens (Human), UniProt O60674); assay: Biochemical JAK kinase assay (LanthaScreen), JAK2; conditions: for Ki: read-out: JAK2 pKi (converted)
In short: (§1)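 LanthaScreen format: phospho-STAT1 (pTyr701) detected with 2 nM Tb antibody after 10 mM EDTA quench. Kinase step used Km-level ATP and 200 nM STAT1 peptide, 1 h at ambient after 1 h pre-incubation. Inhibition fitted to IC50, reported as pKi.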

[2] = system: IL-13 induced STAT6 phosphorylation in BEAS-2B human lung epithelial cells; assay: Cellular JAKI potency assay (BEAS-2B); format: cell-based; conditions: BEAS-2B cells; for IC50: Homo sapiens, BEAS-2B, read-out: BEAS2B pIC50 (converted)
In short: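 AlphaLISA SureFire detection of Tyr641 pSTAT6 in lysates gave IC50s (4-parameter fit, expressed as pIC50). Cells: human BEAS-2B, exposed 1 h at 37 °C to compound dose series at 0.1% DMSO, then 30 min to IL-13 added at 80 ng/mL in HEPES-buffered HBSS with BSA.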

[3] = molecular target: JAK1 (Homo sapiens (Human), UniProt P23458); assay: Biochemical JAK kinase assay (LanthaScreen), JAK1; conditions: for Ki: read-out: JAK1 pKi (converted)
In short: as §1

Sequence of JAK2 (O60674 whole entry): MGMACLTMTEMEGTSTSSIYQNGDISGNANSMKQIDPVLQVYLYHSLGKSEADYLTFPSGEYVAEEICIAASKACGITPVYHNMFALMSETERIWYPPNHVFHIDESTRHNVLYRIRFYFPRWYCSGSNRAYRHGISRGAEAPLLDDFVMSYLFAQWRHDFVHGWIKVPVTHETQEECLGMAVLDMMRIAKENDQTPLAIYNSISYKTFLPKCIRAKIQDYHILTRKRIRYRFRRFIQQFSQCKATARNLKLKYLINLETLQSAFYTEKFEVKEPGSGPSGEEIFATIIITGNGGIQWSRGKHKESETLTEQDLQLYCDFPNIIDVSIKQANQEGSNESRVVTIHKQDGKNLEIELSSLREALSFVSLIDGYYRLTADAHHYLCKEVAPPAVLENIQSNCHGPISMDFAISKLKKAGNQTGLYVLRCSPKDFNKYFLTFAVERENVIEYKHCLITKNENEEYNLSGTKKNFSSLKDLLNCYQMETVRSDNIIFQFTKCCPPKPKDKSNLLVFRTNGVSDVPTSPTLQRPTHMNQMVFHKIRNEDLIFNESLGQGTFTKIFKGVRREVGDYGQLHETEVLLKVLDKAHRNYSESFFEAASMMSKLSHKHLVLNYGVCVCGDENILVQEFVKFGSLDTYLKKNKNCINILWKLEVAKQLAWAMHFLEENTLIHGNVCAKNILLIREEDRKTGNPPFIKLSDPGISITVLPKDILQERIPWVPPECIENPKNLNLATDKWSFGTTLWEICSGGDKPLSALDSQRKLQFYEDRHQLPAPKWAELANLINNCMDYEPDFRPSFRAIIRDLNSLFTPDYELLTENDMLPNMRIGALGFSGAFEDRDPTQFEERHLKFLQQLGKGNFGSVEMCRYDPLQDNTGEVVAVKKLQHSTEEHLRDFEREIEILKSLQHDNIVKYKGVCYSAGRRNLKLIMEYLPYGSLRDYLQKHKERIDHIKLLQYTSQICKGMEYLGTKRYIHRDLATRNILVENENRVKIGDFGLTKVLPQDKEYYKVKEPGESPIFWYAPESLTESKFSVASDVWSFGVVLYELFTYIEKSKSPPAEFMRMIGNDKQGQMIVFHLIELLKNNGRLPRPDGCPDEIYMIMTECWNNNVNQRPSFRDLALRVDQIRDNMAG
Sequence of JAK1 (P23458 whole entry): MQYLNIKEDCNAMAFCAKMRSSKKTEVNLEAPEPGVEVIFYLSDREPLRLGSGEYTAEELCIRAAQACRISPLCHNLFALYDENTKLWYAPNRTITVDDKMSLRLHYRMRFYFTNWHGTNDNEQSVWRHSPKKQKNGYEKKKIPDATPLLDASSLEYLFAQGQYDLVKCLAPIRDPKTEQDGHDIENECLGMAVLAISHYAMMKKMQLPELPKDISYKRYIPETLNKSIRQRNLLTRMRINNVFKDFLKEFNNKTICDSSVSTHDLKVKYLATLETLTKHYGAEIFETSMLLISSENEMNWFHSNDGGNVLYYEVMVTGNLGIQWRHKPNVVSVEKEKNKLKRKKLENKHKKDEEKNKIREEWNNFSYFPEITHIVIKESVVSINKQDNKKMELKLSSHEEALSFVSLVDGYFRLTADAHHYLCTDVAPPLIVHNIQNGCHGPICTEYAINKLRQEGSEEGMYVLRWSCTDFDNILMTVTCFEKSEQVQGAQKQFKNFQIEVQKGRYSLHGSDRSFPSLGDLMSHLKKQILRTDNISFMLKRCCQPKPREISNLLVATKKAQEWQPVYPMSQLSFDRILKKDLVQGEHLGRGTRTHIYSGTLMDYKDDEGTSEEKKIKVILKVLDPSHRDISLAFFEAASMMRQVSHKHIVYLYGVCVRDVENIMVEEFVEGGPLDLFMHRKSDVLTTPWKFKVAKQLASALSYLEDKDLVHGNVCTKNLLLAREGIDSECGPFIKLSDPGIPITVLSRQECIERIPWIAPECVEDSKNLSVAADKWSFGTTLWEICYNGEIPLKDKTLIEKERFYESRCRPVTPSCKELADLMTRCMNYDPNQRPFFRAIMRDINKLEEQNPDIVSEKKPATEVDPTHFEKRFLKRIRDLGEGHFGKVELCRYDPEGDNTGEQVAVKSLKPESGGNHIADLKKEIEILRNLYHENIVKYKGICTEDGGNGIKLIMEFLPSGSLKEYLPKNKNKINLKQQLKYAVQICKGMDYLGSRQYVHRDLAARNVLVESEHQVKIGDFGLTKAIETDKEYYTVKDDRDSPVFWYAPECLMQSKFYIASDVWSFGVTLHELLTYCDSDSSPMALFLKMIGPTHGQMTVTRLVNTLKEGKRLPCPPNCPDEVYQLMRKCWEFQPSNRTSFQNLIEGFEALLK

Row | SMILES | Ki [1] [nM] | IC50 [2] [nM] | JAK1 pKi [3] | JAK2 pKi [1] | Ki [3] [nM] | BEAS2B pIC50 [2]
1 | CCOC(=O)C1=C(c2c[nH]c(-c3n[nH]c4c(F)c(-c5ccc(O)cc5CC)ccc34)n2)CNCC1 [Example 301] | 0.1 to 1 | 10 to 31.6 | A (A represents a pKi value ≥10 (Ki≤0.1 nM)) |  |  | 
2 | CCc1cc(O)ccc1-c1ccc2c(-c3nc(C4=CCN(C5CCNC5=O)C4)c[nH]3)n[nH]c2c1F (stereo not drawn) [Example 98] |  | 31.6 to 100 |  | A (A represents a pKi value ≥10 (Ki≤0.1 nM)) | 0.1 to 1 | 
3 | CCc1cc(O)ccc1-c1ccc2c(-c3nc(C4=C[C@@H](CO)N(C)C4)c[nH]3)n[nH]c2c1F [Example 344] | 0.1 to 1 | 10 to 31.6 |  |  | 0.1 to 1 | 
4 | CCc1cc(O)ccc1-c1ccc2c(-c3nc(C4=CCN[C@H](CO)C4)c[nH]3)n[nH]c2c1F [Example 386] | 0.1 to 1 |  |  |  | 0.1 to 1 | C (C represents a pIC50 value between 7 (included) and 7.5)
5 | CCc1cc(O)ccc1-c1ccc2c(-c3nc(C4=CC[C@H](C)N(CCN5CCOCC5)C4)c[nH]3)n[nH]c2c1F [Example 270] | 0.1 to 1 | 10 to 31.6 |  |  | 0.1 to 1 | 
6 | CCc1cc(O)ccc1-c1ccc2c(-c3nc(C4=CCN(CCNS(C)(=O)=O)CC4)c[nH]3)n[nH]c2c1 [Example 99] |  | 10 to 31.6 | A (A represents a pKi value ≥10 (Ki≤0.1 nM)) | A (A represents a pKi value ≥10 (Ki≤0.1 nM)) |  | 
7 | CCc1cc(O)ccc1-c1ccc2c(-c3nc(C4=C[C@H](CO)N(CCCOC)C4)c[nH]3)n[nH]c2c1F [Example 272] |  | 3.16 to 10 | A (A represents a pKi value ≥10 (Ki≤0.1 nM)) | A (A represents a pKi value ≥10 (Ki≤0.1 nM)) |  | 
8 | CCc1cc(O)ccc1-c1ccc2c(-c3nc(C4=CCN(CCC(=O)NC)C4)c[nH]3)n[nH]c2c1F [Example 342] | 0.1 to 1 | 10 to 31.6 |  |  | 0.1 to 1 | 
9 | CCc1cc(O)ccc1-c1ccc2c(-c3nc(C4=C[C@@H](C(=O)OC)NC4)c[nH]3)n[nH]c2c1F [Example 251] | 0.1 to 1 | 10 to 31.6 |  |  | 0.1 to 1 | 
10 | CCc1cc(O)ccc1-c1ccc2c(-c3nc(C4=CCN(CCCOC)CC4)c[nH]3)n[nH]c2c1 [Example 56] |  | 3.16 to 10 | A (A represents a pKi value ≥10 (Ki≤0.1 nM)) | A (A represents a pKi value ≥10 (Ki≤0.1 nM)) |  | 
11 | CCc1cc(O)ccc1-c1ccc2c(-c3nc(C4=CCN(C(=O)OC)CC4)c[nH]3)n[nH]c2c1F [Example 156] | 0.1 to 1 | 31.6 to 100 |  |  | 1 to 10 | 
12 | CCc1cc(O)ccc1-c1ccc2c(-c3nc(C4=CCN[C@H](C)C4)c[nH]3)n[nH]c2c1F [Example 319] | 0.1 to 1 | 10 to 31.6 |  |  | 0.1 to 1 | 
13 | CCc1cc(O)ccc1-c1ccc2c(-c3nc(C4=CCN(C[C@H]5COCCN5)CC4)c[nH]3)n[nH]c2c1F [Example 190] | 0.1 to 1 | 31.6 to 100 |  |  | 0.1 to 1 | 
14 | CCc1cc(O)ccc1-c1ccc2c(-c3nc(C4=CCN(CC(=O)NC)C4)c[nH]3)n[nH]c2c1F [Example 97] |  | 3.16 to 10 |  | A (A represents a pKi value ≥10 (Ki≤0.1 nM)) | 0.1 to 1 | 
15 | CCc1cc(O)ccc1-c1ccc2c(-c3nc(C4=CCN([C@H]5CC[C@@](C)(O)CC5)C4)c[nH]3)n[nH]c2c1F [Example 341] |  | 10 to 31.6 | A (A represents a pKi value ≥10 (Ki≤0.1 nM)) | A (A represents a pKi value ≥10 (Ki≤0.1 nM)) |  | 
16 | CCc1cc(O)ccc1-c1ccc2c(-c3nc(C4=CCN(S(C)(=O)=O)C4)c[nH]3)n[nH]c2c1F [Example 172] | 0.1 to 1 | 10 to 31.6 |  |  | 1 to 10 | 
17 | CCc1cc(O)ccc1-c1ccc2c(-c3nc(C4=CCN([C@H]5CC[C@@H](O)CC5)C4)c[nH]3)n[nH]c2c1 [Example 287] |  | 3.16 to 10 | A (A represents a pKi value ≥10 (Ki≤0.1 nM)) | A (A represents a pKi value ≥10 (Ki≤0.1 nM)) |  | 

Row | SMILES | Ki [1] [nM] | IC50 [2] [nM] | JAK1 pKi [3] | JAK2 pKi [1] | Ki [3] [nM] | BEAS2B pIC50 [2]
18 | CCc1cc(O)ccc1-c1ccc2c(-c3nc(C4=CCCN(C5CC(O)C5)C4)c[nH]3)n[nH]c2c1 (stereo not drawn) [Example 43] |  | 3.16 to 10 |  | A (A represents a pKi value ≥10 (Ki≤0.1 nM)) | 0.1 to 1 | 
19 | Oc1ccc(-c2ccc3c(-c4nc(C5=CCNCC5)c[nH]4)n[nH]c3c2)c(CC(F)(F)F)c1 [Example 369] | 0.1 to 1 | 31.6 to 100 |  |  | 0.1 to 1 | 
20 | CCc1cc(O)ccc1-c1ccc2c(-c3nc(C4=C[C@H](CC#N)NC4)c[nH]3)n[nH]c2c1 [Example 243] |  | 3.16 to 10 | A (A represents a pKi value ≥10 (Ki≤0.1 nM)) | A (A represents a pKi value ≥10 (Ki≤0.1 nM)) |  | 
21 | CCc1cc(O)ccc1-c1ccc2c(-c3nc(C4=CCN(C(=O)CCNC)C4)c[nH]3)n[nH]c2c1F [Example 380] |  | 31.6 to 100 |  | A (A represents a pKi value ≥10 (Ki≤0.1 nM)) | 0.1 to 1 | 
22 | CCc1cc(O)ccc1-c1ccc2c(-c3nc(C4=CCCN(C[C@@H](C)CO)C4)c[nH]3)n[nH]c2c1F [Example 49] | 0.1 to 1 | 10 to 31.6 |  |  | 0.1 to 1 | 
23 | CCc1cc(O)ccc1-c1ccc2c(-c3nc(C4=CCN(CCNC(C)=O)CC4)c[nH]3)n[nH]c2c1F [Example 107] |  | 10 to 31.6 | A (A represents a pKi value ≥10 (Ki≤0.1 nM)) | A (A represents a pKi value ≥10 (Ki≤0.1 nM)) |  | 
24 | CCc1cc(O)ccc1-c1ccc2c(-c3nc(C4=CCN(CC5CCCOC5)CC4)c[nH]3)n[nH]c2c1F (stereo not drawn) [Example 63] | 0.1 to 1 | 10 to 31.6 |  |  | 0.1 to 1 | 
25 | CCc1cc(O)ccc1-c1ccc2c(-c3nc(C4=CC[C@H](C)N(CCC(C)(C)O)C4)c[nH]3)n[nH]c2c1F [Example 260] | 0.1 to 1 | 10 to 31.6 |  |  | 0.1 to 1 | 
26 | CCc1cc(O)ccc1-c1ccc2c(-c3nc(C4=CCNC(C(C)(C)C)C4)c[nH]3)n[nH]c2c1F (stereo not drawn) [Example 370] | 0.1 to 1 | 31.6 to 100 |  |  | 1 to 10 | 
27 | CCc1cc(O)ccc1-c1ccc2c(-c3nc(C4=CCN(CC)C4)c[nH]3)n[nH]c2c1F [Example 283] |  | 3.16 to 10 | A (A represents a pKi value ≥10 (Ki≤0.1 nM)) | A (A represents a pKi value ≥10 (Ki≤0.1 nM)) |  | 
28 | CCc1cc(O)ccc1-c1ccc2c(-c3nc(C4=CC[C@H](C)N(CCO)C4)c[nH]3)n[nH]c2c1F [Example 257] | 0.1 to 1 | 10 to 31.6 |  |  | 0.1 to 1 | 
29 | CCc1cc(O)ccc1-c1ccc2c(-c3nc(C4=CCCN(C(=O)c5ccccc5)C4)c[nH]3)n[nH]c2c1 [Example 163] | 1 to 10 | 31.6 to 100 |  |  | 1 to 10 | 
30 | CCc1cc(O)ccc1-c1ccc2c(-c3nc(C4=CCN(C(=O)[C@H](COC)NC)C4)c[nH]3)n[nH]c2c1F [Example 375] |  | 31.6 to 100 |  | A (A represents a pKi value ≥10 (Ki≤0.1 nM)) | 0.1 to 1 | 
31 | CCc1cc(O)ccc1-c1ccc2c(-c3nc(C4=CCN(CCC5(O)CC5)C4)c[nH]3)n[nH]c2c1F [Example 320] |  | 10 to 31.6 |  | A (A represents a pKi value ≥10 (Ki≤0.1 nM)) | 0.1 to 1 | 
32 | CCc1cc(O)c(C)cc1-c1ccc2c(-c3nc(C4=CCNCC4)c[nH]3)n[nH]c2c1F [Example 371] | 1 to 10 | 31.6 to 100 |  |  | 1 to 10 | 
33 | CCc1cc(O)ccc1-c1ccc2c(-c3nc(C4=CCN(Cc5cn[nH]c5)C4)c[nH]3)n[nH]c2c1 [Example 296] |  | 10 to 31.6 | A (A represents a pKi value ≥10 (Ki≤0.1 nM)) | A (A represents a pKi value ≥10 (Ki≤0.1 nM)) |  | 
